SMILES strings stand for the structures. Marks after values point to notes of the source that are not given here.

The nature of assay [1]: Complexation of rocuronium bromide by chemical chelators (1H NMR, 303 K). The format is binding. To be noted: NMR spectroscopy at 303 K, D2O, curve fitting of proton chemical shift changes. The procedure: All the ^1H spectra (303 K) were recorded at 400.13 MHz with 128 scans, sw=12 ppm, TD=32 k and zero filled to 64 k real points in processing. All experiments were measured at 303K.
Determination of Stoichiometry
Stock solutions of rocuronium bromide and γ-cyclodextrin (15) were prepared, both with a concentration of 6.02 mM. From these, sixteen solutions were prepared (with the mole % of rocuronium ranging from 0-100) by taking aliquots of 0–800 μl of the rocuronium bromide solution. Aliquots of the γ-cyclodextrin solution, 800–0 μl were added to make the solution a total volume of 800 μl and 100 mole % (i.e. 6.02 mM of [rocuronium bromide+γ-cyclodextrin]). ^1H-NMR spectra were recorded as described above.
If the chemical shift change of H9α in rocuronium bromide is defined as Δδ then a plot of [Δδ*(mole % rocuronium bromide)] vs. [mole % rocuronium bromide] gives a so called Job Plot by the method of continuous variation (Connors K. A.: Binding constants, The measurement of Molecular Complex Stability; Wiley-Interscience; New York, 1987, pp 24–28). The maximum in this plot is indicative for the stoichiometry of the complex.
Determination of the Association Constants
A stock solution of rocuronium bromide: 0.821 mM in D2O was prepared. […]
^1H NMR spectra were recorded as descibed above. […]

Assay [2] relates to steady-state neuromuscular block induced by rocuronium bromide (Roc). Description: Reversal of neuromuscular blockade in vivo, anaesthetized guinea pig, rocuronium. As to conditions: Roc infusion, 85–90% block, anaesthetized guinea pigs, i.v. reversal agent; mean. The procedure:
(§1) Male Dunkin-Hartley guinea pigs (bodyweight: 600–900 g) were anaesthetized by i.p. administration of 10 mg/kg pentobarbitone and 1000 mg/kg urethane. After tracheotomy, the animals were artificially ventilated using a Harvard small animal ventilator. A catheter was placed into the carotid artery for continuous monitoring of arterial blood pressure and the taking of blood samples for blood gas analysis. Heart rate was derived from the blood pressure signal. The sciatic nerve was stimulated (rectangular pulses of 0.5 ms duration at 10 s (0.1 Hz) intervals at a supramaximal voltage, using a Grass S88 Stimulator) and the force of M. gastrocnemius contractions was measured using a Grass FT03 force-displacement transducer. Contractions, blood pressure and heart rate were recorded on a multichannel Grass 7D recorder. Catheters were placed in both jugular veins. One catheter was used for the continuous infusion of a neuromuscular blocking agent. The infusion rate of the neuromuscular blocking agent was increased until a steady-state block of 85–90% was obtained. The other catheter was used for administration of increasing doses of the reversal agent. During continuous infusion of the neuromuscular blocking agent, single doses of increasing concentration of reversal agent were given. At the end of the experiment, the measured force of muscle contractions was plotted against the concentration of reversal agent, and using regression analysis techniques, the 50% reversal concentration was calculated.
Reversal of neuromuscular block in vivo, induced by rocuronium bromide, was carried out as described in Example 5.

The test system of assay [3] is steady-state neuromuscular block induced by vecuronium bromide (Vec). The experiment in a line: Reversal of neuromuscular blockade in vivo, anaesthetized guinea pig, vecuronium. As to conditions: Vec infusion, 85–90% block, anaesthetized guinea pigs, i.v. reversal agent; mean. How it is done: as §1
Assay [4] concerns steady-state neuromuscular block induced by pancuronium bromide (Pan). The experiment in a line: Reversal of neuromuscular blockade in vivo, anaesthetized guinea pig, pancuronium. To be noted: Pan infusion, 85–90% block, anaesthetized guinea pigs, i.v. reversal agent; mean. How it is done: as §1
Assay [5] deals with steady-state neuromuscular block induced by mivacurium chloride (Miv). The experiment in a line: Reversal of neuromuscular blockade in vivo, anaesthetized guinea pig, mivacurium. To be noted: Miv infusion, 85–90% block, anaesthetized guinea pigs, i.v. reversal agent; mean. How it is done:
as §1

The test system of assay [6] is steady-state neuromuscular block induced by atracurium besilate (Atr). Description: Reversal of neuromuscular blockade in vivo, anaesthetized guinea pig, atracurium. To be noted: Atr infusion, 85–90% block, anaesthetized guinea pigs, i.v. reversal agent; mean. How it is done: as §1
Assay [7] deals with steady-state neuromuscular block induced by cis-atracurium (Cis-Atr). The experiment in a line: Reversal of neuromuscular blockade in vivo, anaesthetized guinea pig, cis-atracurium. To be noted: Cis-Atr infusion, 85–90% block, anaesthetized guinea pigs, i.v. reversal agent; mean. How it is done:
as §1

The subject of assay [8] is steady-state neuromuscular block induced by tubocurarine chloride (T-C). The experiment in a line: Reversal of neuromuscular blockade in vivo, anaesthetized guinea pig, tubocurarine. As to conditions: T-C infusion, 85–90% block, anaesthetized guinea pigs, i.v. reversal agent; mean. How it is done:
as §1

Assay [9] relates to steady-state neuromuscular block induced by suxamethonium chloride (Sux; succinylcholine). The experiment in a line: Reversal of neuromuscular blockade in vivo, anaesthetized guinea pig, suxamethonium. To be noted: Sux infusion, 85–90% block, anaesthetized guinea pigs, i.v. reversal agent; mean. The procedure: as §1
The subject of assay [10] is steady-state neuromuscular block induced by rapacuronium bromide (Rap; Org 9487). The experiment in a line: Reversal of neuromuscular blockade in vivo, anaesthetized guinea pig, rapacuronium. To be noted: Rap infusion, 85–90% block, anaesthetized guinea pigs, i.v. reversal agent; mean. How it is done:
as §1

Assay [11] concerns neuromuscular block induced by rocuronium in isolated mouse hemidiaphragm. The experiment in a line: Reversal of neuromuscular block in vitro: isolated mouse hemidiaphragm preparation. The procedure:
Hemidiaphragms, with phrenic nerves attached, were removed from euthanized male mice (Institute of Cancer Research; bodyweight: 20–60 g). The preparations were mounted on a tissue holder and placed in a tissue bath filled with a modified Krebs-Henseleit solution (composition: 118 mM NaCl, 30 mM NaHCO3, 5 mM KCl, 1 mM KH2PO4, 1 mM MgSO4, 30 mM glucose and 2.5 mM CaCl2) at 37° C. and bubbled with 95% oxygen and 5% carbondioxide. One end of the preparation was connected with a siliconized silk suture to a Grass FT03 force-displacement transducer. An initial force of 10 mN was applied. The phrenic nerve was placed on a bipolar platinum electrode and was stimulated with rectangular pulses of 0.2 ms duration at 20 s (0.05 Hz) intervals at a supramaximal voltage, using a Grass S88 Stimulator. Contractions were recorded on a four channel Grass 79D recorder.
Increasing amounts of reversal agent were then administered into the bath at intervals of 10 min. The % maximum reversal was established. At the end of the experiment, the measured muscle contractions force was plotted against the concentration of reversal agent, and using regression analysis techniques, the 50% reversal concentration was calculated.
After induction of neuromuscular block by rocuronium, the % maximum reversal produced by the addition of a number of γ-cyclodextrin derivatives (compounds 11–16), a cyclic octasaccharide comprising 4 rhamnosyl-mannopyranosyl units (compound 24), or a number of paracyclophane derivatives (compounds 17–21 and 23) are presented in Table II.
Reversal of neuromuscular block in vitro was carried out using the mouse hemidiaphragm preparation as described in Example 6.

In the case of `OC[C@H]1O[C@@H]2O[C@H]3[C@H](O)[C@@H](O)[C@@H](O[C@H]4[C@H](O)[C@@H](O)[C@@H](O[C@H]5[C@H](O)[C@@H](O)[C@@H](O[C@H]6[C@H](O)[C@@H](O)[C@@H](O[C@H]7[C@H](O)[C@@H](O)[C@@H](O[C@H]8[C@H](O)[C@@H](O)[C@@H](O[C@H]9[C@H](O)[C@@H](O)[C@@H](O[C@H]1[C@H](O)[C@H]2O)O[C@@H]9CO)O[C@@H]8CO)O[C@@H]7CO)O[C@@H]6CO)O[C@@H]5CO)O[C@@H]4CO)O[C@@H]3CO` [Compound 15, γ-cyclodextrin], the “Association constant (Ka, M^−1) of 1:1 complex of rocuronium bromide and cyclic host compound” value in assay [1] is recorded as 10,000–20,400# M^−1. In addition, the “Dose (ED50) producing 50% reversal of steady-state neuromuscular block” value in [2] is given as 4 (3) μmol.kg^−1; in [3], 75 (4) μmol.kg^−1; in [4], 186 (4) μmol.kg^−1; in assay [5], 1690 (2) μmol.kg^−1; in [6], 2793 (4) μmol.kg^−1; in [7], 1710 (2) μmol.kg^−1. Besides, the “Dose (ED50) producing 50% reversal of steady-state neuromuscular block” value in assay [8] is 630 (2) μmol.kg^−1; in assay [9], 1189 (2) μmol.kg^−1; in assay [10] it was 57 (3) μmol.kg^−1. Moreover, the “Mouse hemidiaphragm: maximum reversal (%)” value in [11] (3.1 μM rocuronium) turned out to be 94%. In addition, the “concentration of chemical chelator at maximum reversal” value in assay [11] (3.1 μM rocuronium, mouse hemidiaphragm) is 144 µM. Further, the “Reversal of the neuromuscular blocking action of rocuronium (in words)” value in assay [11] (rocuronium-induced block) is given as “efficiently blocked”.

Values taken from patent publication US7265099B1, “Use of chemical chelators as reversal agents for drug-induced neuromuscular block” (Organon N.V., priority 1999, dated 2007).
